This is an account of results in patent publication US20110123470A1, “NATURAL BIOACTIVE COMPOUNDS” (Aquapharm Bio-Discovery Ltd., priority 2007, published 2011).

Values after ≈ are worked out from the molar mass of the structure shown. Bounds are passed on as bounds.

The subject of one data set is Candida albicans. Put plainly: Antifungal activity assay (MIC) in PDA media. Particulars: for C. albicans (MIC): PDA media containing 0.2% yeast extract. In kind it is cell-based. On the procedure:
(§1) Candida albicans and Malassezia furfur were used to carry out the antifungal assay in Potato Dextrose Agar (PDA) media containing 0.2% yeast extract. The Minimum Inhibitory Concentration (MIC) was recorded (Table 1).

The next data set relates to Malassezia furfur. Put plainly: Antifungal activity assay (MIC) in PDA media. In kind it is cell-based. Particulars: for M. furfur (MIC): PDA media containing 0.2% yeast extract. On the procedure: as §1
Another data set concerns MRSA. The experiment in a line: Antimicrobial activity against MRSA. In kind it is cell-based.
The test system of data set [1] is anti-oxidant response element (ARE). Put plainly: Antioxidant elicitation assay (ARE-driven luciferase activity) in reporter cell line ARE32. In kind it is cell-based. Conditions: ARE32 cells. As to the method: The cell line ARE32 was incubated with eight concentrations of P1639C and the positive control tert-butylhydroquinone (tBHQ) for 24 hours, and the luciferase activity measured (Luciferase Assay System, Promega). P1639C enhanced induction of ARE-driven luciferase activity up to 18-fold (at a concentration of 30 μM) (FIG. 2b) compared with normal cells without any oxidative induction.
The ARE comparison was also carried out between p1639C (5-hexyl-2(5H)-furanone), 4-decanolide (5-hexyl-2(3H)-furanone) and 2(5H)-furanone.

The next data set deals with NF-κB. The experiment in a line: Anti-inflammatory assay: NFκB activity in TNF-α stimulated mammalian cell culture (PRINCESS NINA NFκB Assay Kit). In kind it is cell-based. On the procedure:
(§2) Anti-inflammatory assay was carried out based on the NFκB expression and IKKβ activity. NFκB expression was tested using PRINCESS® NINA NFκB Assay Kit. P1639C and other related lactone compounds were supplemented to a mammalian cell culture in which NFκB has been stimulated by TNF-α. The assay was also coupled with an in vitro cell toxicity assay. IKKβ was tested using 5-20 mU of IKKβ, which was diluted in 50 mM Tris (pH 7.5), 0.1 mM EGTA, 1 mg/ml BSA, 0.1%, b-Mercaptoethanol. The kinase is assayed against substrate peptide (LDDRHDSGLDSMKDEEY) in a final volume of 25.5 μl containing 50 mM Tris (pH 7.5), 0.1 mM EGTA, 0.1%, b-Mercaptoethanol, 300 μM substrate peptide, 10 mM magnesium acetate and 0.005 mM [33P-g-ATP] (500-1000 cpm/pmole) and incubated for 30 mins at room temperature. Assays are stopped by addition of 50 of 0.5M (3%) orthophosphoric acid. The phosphorylated peptide was harvested on a p81 filterplate and the phosphorylation level was measured by scintillation counts.
P1639C was supplemented to the mammalian cell culture with a series of concentration at 0.001 mM, 0.002 mM, 0.005 mM, 0.01 mM, 0.02 mM, 0.05 mM, 0.1 mM, 0.2 mM and 0.5 mM. SEAP provided in the Princess NINA kit was used as a stimulatory control to show normal inflammatory response in cells, whereas BAY11-7082 at a final concentration of 5 μM was used as the positive control of inhibited NF-κB activity. The cell with TNF-α was used as the negative control. The cell response to the supplemented compounds was measured by the 450 nm emission (360 nm excitation) after addition of inactivation buffer and MUP solution.

A further data set addresses T1, IKKβ (Homo sapiens, UniProt O14920).
T1 sequence (O14920 1-756): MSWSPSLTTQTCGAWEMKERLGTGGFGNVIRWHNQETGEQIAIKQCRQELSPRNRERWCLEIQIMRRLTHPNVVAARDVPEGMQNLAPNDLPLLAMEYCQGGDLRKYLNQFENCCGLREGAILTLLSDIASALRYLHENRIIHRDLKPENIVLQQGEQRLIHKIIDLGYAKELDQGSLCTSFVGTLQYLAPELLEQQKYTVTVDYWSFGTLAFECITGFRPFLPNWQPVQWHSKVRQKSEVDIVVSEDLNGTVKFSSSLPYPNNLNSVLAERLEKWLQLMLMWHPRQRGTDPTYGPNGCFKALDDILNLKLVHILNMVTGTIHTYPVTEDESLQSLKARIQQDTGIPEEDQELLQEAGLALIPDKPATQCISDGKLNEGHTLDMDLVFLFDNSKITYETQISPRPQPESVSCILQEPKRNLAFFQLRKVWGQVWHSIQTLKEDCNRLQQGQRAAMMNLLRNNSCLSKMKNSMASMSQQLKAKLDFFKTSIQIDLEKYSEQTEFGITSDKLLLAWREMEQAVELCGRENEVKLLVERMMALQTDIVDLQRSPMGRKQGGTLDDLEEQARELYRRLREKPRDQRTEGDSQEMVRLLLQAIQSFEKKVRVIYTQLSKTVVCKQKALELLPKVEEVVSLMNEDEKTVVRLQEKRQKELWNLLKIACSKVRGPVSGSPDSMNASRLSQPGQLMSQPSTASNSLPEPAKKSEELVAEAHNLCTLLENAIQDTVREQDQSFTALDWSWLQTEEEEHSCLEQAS
Put plainly: IKKβ kinase assay (33P phosphorylation of substrate peptide). In kind it is biochemical. Particulars: 50 μM. On the procedure: as §2

Another data set relates to mammalian cell culture. Put plainly: Cell viability (resazurin) coupled with the NFκB assay. In kind it is cell-based. Conditions: concentrations of the NF-κB assay. As to the method:
as §2
Cell viability was carried out by incubation of the cells with resazurin and measuring the absorption at 600 nm against a reference measurement of above 650 nm.
Background: The colour change of resazurin is a common sign of viable cells or microbes.

As usually defined, the MIC is the least concentration at which growth counts as inhibited.

Experimental for human hepatocytes: The toxicology assay was carried out using an in vitro human hepatocytes model where human hepatocytes were exposed to varying concentrations of compound [MUT] as well as tamoxifen and chlorpromazine for three hours.

As to `O=C1C=CCO1` [2(5H)-furanone], the “C. albicans (MIC)” value with Candida albicans was more than 10 µg. In the data set on Malassezia furfur, the “M. furfur (MIC)” value is more than 10 µg. Besides, the “MRSA (antimicrobial activity)” value in the data set with MRSA was more than 20 µg. Moreover, the “anti-oxidant elicitation effect (ARE-driven gene expression)” value in data set [1] (comparison of FIG. 8) is listed as “did not show significant anti-oxidant elicitation effects”.

For the compound `CC1=CCOC1=O` [3-methy1-2(5H)-furanone], the “C. albicans (MIC)” value in the data set on Candida albicans lay within 5 to 7 µg. Also, in the data set on Malassezia furfur, the “M. furfur (MIC)” value fell in the range of 5 to 6 µg. In addition, the “MRSA (antimicrobial activity)” value with MRSA was more than 20 µg.

As to `CC1=CCC(=O)O1` [5-methyl-2(3H)-furanone], in the data set with Candida albicans, the “C. albicans (MIC)” value is 5 to 7 µg. The “M. furfur (MIC)” value in the data set on Malassezia furfur lay in the range of 5 to 7 µg. In the data set on MRSA, the “MRSA (antimicrobial activity)” value was more than 20 µg.

Consider `CC1C=CC(=O)O1` (stereo not drawn) [5-methyl-2(5H)-furanone], for which, in the data set with Candida albicans, the “C. albicans (MIC)” value lay within 5 to 7 µg. The “M. furfur (MIC)” value in the data set with Malassezia furfur lay within 5 to 7 µg. For the same compound, in the data set on MRSA, the “MRSA (antimicrobial activity)” value is more than 20 µg.

Regarding `CCCCCCC1C=CC(=O)O1` (stereo not drawn) [P1639C, 5-hexylfuran-2(5H)-one], in the data set with NF-κB (0.05 mM), the “NF-κB inhibition activity, comparison with known butenolides” value was “the only active compound”. In the data set on NF-κB (0.5 mM), the “inhibition of NF-κB mediated inflammatory response” value is recorded as “almost fully inhibited”. Further, the IC50 in the data set on NF-κB (TNF-α elicited response = 100%, read-out: concentration inhibiting 50% of the NF-κB mediated inflammatory response) was 20 µM. For the same compound, the “IKKβ phosphorylation activity decreased to” value on IKKβ is reported as 64%±2%. Besides, the MIC is 1 to 1.5 µg/mL (≈ 5.94 to 8.92 µM) in the data set with Candida albicans (Candida albicans, read-out: MIC against C. albicans) and 0.8 µg/mL (≈ 4.76 µM) with Malassezia furfur (Malassezia furfur, read-out: MIC against M. furfur). Further, the “C. albicans (MIC)” value in the data set on Candida albicans lay in the range of 1 to 1.5 µg. For the same compound, the “M. furfur (MIC)” value in the data set on Malassezia furfur is less than 1 µg. Moreover, the “cytotoxicity against the testing cells” value with mammalian cell culture is given as “no significant cytotoxicity”. Further, in the data set with MRSA, the “MRSA (antimicrobial activity)” value was more than 10 µg. The “induction of ARE-driven luciferase activity” value in data set [1] (30 μM, 24 hours, compared with normal cells without oxidative induction) is recorded as “up to 18 fold”. In addition, in the data set on human hepatocytes, the “depletion of intracellular ATP (level of toxicity)” value (“depletion of intracellular ATP” for short) is given as “significant ATP depletion was not observed”.

On to `CN(C)CCCN1c2ccccc2Sc2ccc(Cl)cc21` [chlorpromazine], for which, in the data set on human hepatocytes, the “depletion of intracellular ATP” value is “moderate decreasing rate of intracellular ATP level”.

As to `CC/C(=C(\c1ccccc1)c1ccc(OCCN(C)C)cc1)c1ccccc1` [tamoxifen], the “depletion of intracellular ATP” value in the data set on human hepatocytes was “moderate decreasing rate of intracellular ATP level”.
